Data on 29 molecules can be found in patent US9346769B2, “Tetrazolones as inhibitors of fatty acid synthase” (Infinity Pharmaceuticals, Inc., priority 2010, dated 2016).

This test concerns the target T1, human FASN (Homo sapiens, UniProt P49327).
T1 construct: was purified from SKBR3 cells using procedures modified from those in Jayakumar et al; endogenous in cells; host or cells: SKBR3 human breast cancer cells (ATCC); Endogenous enzyme purified by ammonium sulfate precipitation and a mono Q column
Put plainly: FASN Scintillation Proximity Flashplate Assay. The settings on record: human FASN purified from SKBR3 cells; unstarred symbols. The class given is biochemical. The method, boiled down:
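Human FASN purified from SKBR3 cells (1 nM final) preincubated with compound 30 min at 37 °C in phosphate buffer pH 7.0, then reacted 2 h at 37 °C with 100 μM acetyl-CoA plus [3H]-acetyl-CoA, 300 μM malonyl-CoA, 2 mM NADPH. Stopped with orlistat; scintillation-proximity CPM gave % inhibition, four-parameter IC50.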
For orientation: SPA uses beads or plates that emit light when radiolabelled molecules are held near them.

Where only a bound is given, the exact number is not on record here.

T1 sequence (P49327 whole entry): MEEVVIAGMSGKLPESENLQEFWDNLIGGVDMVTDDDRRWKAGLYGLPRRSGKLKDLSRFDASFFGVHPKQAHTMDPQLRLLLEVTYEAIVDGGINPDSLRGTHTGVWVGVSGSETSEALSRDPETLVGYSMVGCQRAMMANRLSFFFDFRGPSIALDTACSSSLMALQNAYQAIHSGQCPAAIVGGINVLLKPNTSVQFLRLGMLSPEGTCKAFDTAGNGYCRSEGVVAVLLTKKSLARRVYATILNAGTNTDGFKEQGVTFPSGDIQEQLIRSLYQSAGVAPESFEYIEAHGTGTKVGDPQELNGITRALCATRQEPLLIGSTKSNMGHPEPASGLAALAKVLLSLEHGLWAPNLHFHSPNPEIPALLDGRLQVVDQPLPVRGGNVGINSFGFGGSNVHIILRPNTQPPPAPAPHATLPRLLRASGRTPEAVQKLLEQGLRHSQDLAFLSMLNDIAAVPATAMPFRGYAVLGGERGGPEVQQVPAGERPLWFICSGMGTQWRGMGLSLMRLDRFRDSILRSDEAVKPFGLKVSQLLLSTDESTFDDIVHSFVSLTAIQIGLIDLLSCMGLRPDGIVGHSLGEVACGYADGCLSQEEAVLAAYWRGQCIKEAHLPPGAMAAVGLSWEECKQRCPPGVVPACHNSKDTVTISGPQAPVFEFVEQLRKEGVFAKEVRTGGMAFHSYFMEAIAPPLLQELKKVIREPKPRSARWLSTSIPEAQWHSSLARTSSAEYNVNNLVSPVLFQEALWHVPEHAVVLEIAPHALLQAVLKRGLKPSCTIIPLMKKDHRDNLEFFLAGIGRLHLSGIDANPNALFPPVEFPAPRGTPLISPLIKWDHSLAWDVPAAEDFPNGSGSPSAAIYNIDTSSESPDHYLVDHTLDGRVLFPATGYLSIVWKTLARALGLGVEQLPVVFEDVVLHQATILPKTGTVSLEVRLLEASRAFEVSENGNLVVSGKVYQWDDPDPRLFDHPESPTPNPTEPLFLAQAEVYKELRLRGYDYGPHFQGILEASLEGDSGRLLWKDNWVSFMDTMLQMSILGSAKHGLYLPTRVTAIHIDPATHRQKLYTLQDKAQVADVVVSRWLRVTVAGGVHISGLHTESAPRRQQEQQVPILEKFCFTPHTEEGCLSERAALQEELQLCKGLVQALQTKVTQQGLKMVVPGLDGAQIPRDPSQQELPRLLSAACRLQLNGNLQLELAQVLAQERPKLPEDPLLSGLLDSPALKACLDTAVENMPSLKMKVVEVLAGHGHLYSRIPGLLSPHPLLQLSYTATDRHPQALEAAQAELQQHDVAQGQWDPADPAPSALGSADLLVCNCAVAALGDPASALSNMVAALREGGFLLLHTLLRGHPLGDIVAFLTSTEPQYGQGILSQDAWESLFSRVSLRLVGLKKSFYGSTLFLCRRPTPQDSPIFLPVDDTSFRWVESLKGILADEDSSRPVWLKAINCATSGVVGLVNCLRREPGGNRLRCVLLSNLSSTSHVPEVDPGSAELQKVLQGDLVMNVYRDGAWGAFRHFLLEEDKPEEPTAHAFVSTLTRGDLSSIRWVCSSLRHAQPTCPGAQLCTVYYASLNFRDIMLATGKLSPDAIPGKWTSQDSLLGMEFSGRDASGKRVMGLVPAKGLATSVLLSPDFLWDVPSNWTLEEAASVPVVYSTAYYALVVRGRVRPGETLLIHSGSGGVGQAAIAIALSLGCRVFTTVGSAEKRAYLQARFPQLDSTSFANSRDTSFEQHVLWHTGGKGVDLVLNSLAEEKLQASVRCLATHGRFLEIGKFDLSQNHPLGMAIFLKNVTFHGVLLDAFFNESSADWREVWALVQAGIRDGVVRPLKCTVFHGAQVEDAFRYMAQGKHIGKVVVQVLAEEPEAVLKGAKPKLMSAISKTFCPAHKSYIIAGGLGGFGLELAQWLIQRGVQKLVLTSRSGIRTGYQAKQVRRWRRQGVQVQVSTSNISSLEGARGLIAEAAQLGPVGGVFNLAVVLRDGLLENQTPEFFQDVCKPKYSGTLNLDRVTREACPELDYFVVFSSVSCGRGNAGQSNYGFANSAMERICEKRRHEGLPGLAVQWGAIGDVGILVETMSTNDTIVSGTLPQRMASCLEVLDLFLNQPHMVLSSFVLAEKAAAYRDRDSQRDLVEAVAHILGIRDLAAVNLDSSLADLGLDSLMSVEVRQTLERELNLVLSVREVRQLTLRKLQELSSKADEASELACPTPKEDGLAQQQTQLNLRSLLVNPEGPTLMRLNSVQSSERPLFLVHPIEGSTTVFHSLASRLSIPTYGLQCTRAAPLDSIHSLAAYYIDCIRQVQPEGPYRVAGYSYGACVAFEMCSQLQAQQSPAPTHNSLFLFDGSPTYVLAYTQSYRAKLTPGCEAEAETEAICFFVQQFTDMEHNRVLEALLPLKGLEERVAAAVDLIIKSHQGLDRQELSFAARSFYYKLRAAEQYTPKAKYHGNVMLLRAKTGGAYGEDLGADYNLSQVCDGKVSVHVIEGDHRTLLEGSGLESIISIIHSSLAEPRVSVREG

As for `COc1ccccc1-n1nnn(C(=O)N(c2ccc(Br)cc2)c2ccc(C(=O)O)cc2)c1=O`, the concentration for half-maximal inhibition (IC50) is < 15 nM. Turning to `CCCCOc1ccc(C(=O)O)cc1N(CC)C(=O)n1nnn(-c2ccccc2OC)c1=O`, the IC50 is < 15 nM. Regarding `COc1ccc(N(C(=O)n2nnn(-c3c(F)cccc3F)c2=O)C(C)C)cc1C(=O)O`, the IC50 was < 15 nM. Take `COc1ccc(N(C(=O)n2nnn(-c3cccc4nc[nH]c34)c2=O)C2CCCCC2)cc1C(=O)O`: the IC50 was in the range of 100 to 200 nM.

Consider `O=C(O)c1ccc(N(C(=O)n2nnn(-c3c(F)cccc3F)c2=O)C2CCCCC2)cn1`, for which the half-maximal inhibitory concentration (IC50) was < 15 nM. `CN(Cc1cccc2ccccc12)C(=O)n1nnn(-c2c(F)cccc2F)c1=O` yielded a half-maximal inhibitory concentration (IC50) of 100 to 200 nM.

As for `CC(C)N(C(=O)n1nnn(-c2c(F)cccc2F)c1=O)c1cc(C(=O)O)ccc1Oc1ccccc1`, the concentration for half-maximal inhibition (IC50) was < 15 nM. On to `COc1cccc(F)c1-n1nnn(C(=O)N(c2cc(C(=O)O)ccc2Oc2ccccc2)C(C)C)c1=O`, for which the IC50 was < 15 nM. For the molecule `O=C(O)c1ccc(N(C(=O)n2nnn(-c3c(F)cccc3F)c2=O)C2CCCCC2)c(Oc2ccccc2)c1`, the IC50 is < 15 nM. For `O=C(O)c1ccc(N(C(=O)n2nnn(-c3c(F)cccc3F)c2=O)C2CCCC2)c(Oc2ccccc2)c1`, the IC50 is < 15 nM. Regarding `COc1cc(Oc2ccccc2)c(N(C(=O)n2nnn(-c3c(F)cccc3F)c2=O)C2CCCCC2)cc1C(=O)O`, the IC50 is < 15 nM. Take `COc1cc(Oc2ccccc2)c(N(C(=O)n2nnn(-c3c(F)cccc3F)c2=O)C2CCCC2)cc1C(=O)O`: the IC50 is < 15 nM. As for `O=C(O)c1ccc(F)c(N(C(=O)n2nnn(-c3c(F)cccc3F)c2=O)C2CCCC2)c1`, the figure is < 15 nM; as for `O=C(N1Cc2cccc3cccc(c23)C1)n1nnn(-c2c(F)cccc2F)c1=O`, 15 to 100 nM. With `O=C(N1CCCc2cccc(F)c21)n1nnn(-c2c(F)cccc2F)c1=O`, the IC50 was < 15 nM. `CN(C)c1ccc2c(c1)OC(=O)CC2CC(=O)Nc1cccc2c1CCCN2C(=O)n1nnn(-c2c(F)cccc2F)c1=O` (centres unmarked) displayed an IC50 of 15 to 100 nM. In turn, `CCN(C(=O)n1nnn(-c2ccccc2Cl)c1=O)C1CCCC1` had a half-inhibitory concentration (IC50) of 200 to 5000 nM. `CCCN(C(=O)n1nnn(-c2ccccc2Cl)c1=O)C1CCCC1` had an IC50 of 200 to 5000 nM. For the molecule `CN(C)N(C(=O)n1nnn(-c2ccccc2Cl)c1=O)C1CCCC1`, the half-inhibitory concentration (IC50) is 200 to 5000 nM. Molecule `COc1ccc(COC(=O)[C@H]2CC[C@H](N(C(=O)n3nnn(-c4c(F)cccc4OC)c3=O)c3ccccc3)CC2)cc1` returned a half-inhibitory concentration (IC50) of 15 to 100 nM. `COc1cccc(F)c1-n1nnn(C(=O)N(c2ccccc2)[C@H]2CC[C@H](C(=O)O)CC2)c1=O`: the half-inhibitory concentration (IC50) is 100 to 200 nM. Molecule `CN(C)N(C(=O)n1nnn(-c2ccccc2Cl)c1=O)C1=CCCC1` displayed a half-inhibitory concentration (IC50) of 15 to 100 nM.

Molecule `CN(C)N(C(=O)n1nnn(-c2ccccc2Br)c1=O)C1=CCCC1` gave an IC50 of 15 to 100 nM. `CN(C)N(C(=O)n1nnn(-c2ccccc2F)c1=O)C1=CCCC1`: the IC50 fell in the range of 100 to 200 nM.

The molecule `CN(C)N(C(=O)n1nnn(-c2c(Cl)cccc2Cl)c1=O)C1=CCCC1` had a half-inhibitory concentration (IC50) of 15 to 100 nM.

As to `CN(C)N(C(=O)n1nnn(-c2c(F)cccc2F)c1=O)C1=CCCC1`, the IC50 lay in the range of 15 to 100 nM. Regarding `CN(C)N(C(=O)n1nnn(-c2ccccc2Cl)c1=O)C1=CCCCCC1`, the concentration for half-maximal inhibition (IC50) was 100 to 200 nM. `CN(C)N(C(=O)n1nnn(-c2ccccc2Cl)c1=O)/C1=C/CCCCCC1` showed a half-inhibitory concentration (IC50) of 200 to 5000 nM. The molecule `CCCN(CC1CC1)C(=O)n1nnn(-c2ccccc2Cl)c1=O` showed a half-maximal inhibitory concentration (IC50) of 200 to 5000 nM.

As usually defined, the IC50 is the concentration needed to halve the response being measured. Low values mean greater potency, high ones weaker potency.
